pIC50: −log10 of the molar value. Counter-ions that a name gives are not always drawn.

These results are taken from patent US5750531A, “Pyrimidine derivatives and processes for the preparation thereof” (Yuhan Corporation, priority 1994, dated 1998).

In experiment [1] the test system is gastric secretion. In words: Inhibition of gastric secretion (pylorus ligation, Shay method). In kind it is in vivo, Male Sprague-Dawley rats. The settings on record: 20 mg/kg intraduodenally, 5 hours; for Rel. Conc.: acid concentration relative to omeprazole; for Relative Acid Output: acid output relative to omeprazole; for Rel. Vol.: gastric juice volume relative to omeprazole. The method, boiled down:
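Rats under ether anaesthesia had the pylorus ligated, and the stomach was removed 5 h later. Gastric juice was centrifuged at 1,000 g, and its volume and acidity were measured. Relative volume, relative acid concentration and relative acid output […] were then calculated.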

Experiment [2] has as its target proton pump(H^+ /K^+ ATPase). In words: Inhibition of proton pump(H^+ /K^+ ATPase) activity. It counts as biochemical. The settings on record: pH 6.0, 37° C., 30 minutes preincubation and 30 minutes reaction; read-out: IC50 Test compound. The method, boiled down:
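Enzyme was preincubated with compound at five concentrations for 30 min at 37° C in Tris-HCl pH 6.0 with Mg2+, K+ and NH4Cl. Reaction ran 30 min at 37° C with ATP and was stopped with trichloroacetic acid. K+-stimulated inorganic phosphate release gave IC50 by Litchfield-Wilcoxon.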

On to `Cc1ccccc1Nc1nc2c(c(N3CCc4ccccc4C3)n1)CCCC2.Cl` [Example 51, 2-(2-methylphenylamino)-4-(1,2,3,4-tetrahydroisoquinolin-2-yl)-5,6,7,8-tetrahydroquinazoline hydrochloride], for which, in experiment [1], the Rel. Conc. worked out at 0.12, the “Relative Acid Output” value is reported as 0.59 and the Rel. Vol. turned out to be 0.59. The pIC50 in experiment [2] was 5.96.

As for `Cc1cc(N2CCc3ccsc3C2C)nc(Nc2ccc(F)cc2C)n1.Cl` (centres unmarked) [Example 52, 6-methyl-2-(2-methyl-4-fluorophenylamino)-4-(7-methyl-4,5,6,7-tetrahydrothieno[2,3-c]pyridin-6-yl)pyrimidine hydrochloride], in experiment [1], the Rel. Conc. came to 0.94, the “Relative Acid Output” value was determined as 1.12 and the Rel. Vol. amounted to 1.34. Further, in experiment [2], the negative logarithm of the IC50 (pIC50) is 6.30.

With `Cc1cc(N2CCc3ccsc3C2C)nc(Nc2ccc(F)cc2)n1.Cl` (centres unmarked) [Example 53, 6-methyl-4-(7-methyl-4,5,6,7-tetrahydrothieno[2,3-c]pyridin-6-yl)-2-(4-fluorophenylamino)pyrimidine hydrochloride], in experiment [1], the Rel. Conc. worked out at 1.14, the “Relative Acid Output” value worked out at 0.55 and the Rel. Vol. amounted to 0.47. For the same compound, the pIC50 in experiment [2] was 5.68.

In the case of `Cc1cc(N2CCc3ccsc3C2C)nc(N(C)c2ccccc2)n1.Cl` (centres unmarked) [Example 54, 6-methyl-2-(N-methylphenylamino)-4-(7-methyl-4,5,6,7-tetrahydrothieno[2,3-c]pyridin-6-yl)pyrimidine hydrochloride], in experiment [1], the Rel. Conc. stood at 0.23, the “Relative Acid Output” value came out at 0.75 and the Rel. Vol. is 0.86. The pIC50 in experiment [2] is 4.69.

For the compound `Cc1cc(F)ccc1Nc1nc(C)c(C)c(N2CCc3ccsc3C2C)n1.Cl` (centres unmarked) [Example 55, 5,6-dimethyl-2-(2-methyl-4-fluorophenylamino)-4-(7-methyl-4,5,6,7-tetrahydrothieno[2,3-c]pyridin-6-yl)pyrimidine hydrochloride], in experiment [1], the Rel. Conc. stood at 0.11, the “Relative Acid Output” value is listed as 0.51 and the Rel. Vol. amounted to 0.56. In experiment [2], the pIC50 was 5.68.

In the case of `Cc1cc(Nc2ccc(F)cc2C)nc(N2CCc3ccccc3C2C)n1.Cl` (centres unmarked) [Example 57, 6-methyl-4-(2-methyl-4-fluorophenylamino)-2-(1-methyl-1,2,3,4-tetrahydroisoquinolin-2-yl)pyrimidine hydrochloride], in experiment [1], the Rel. Conc. was 0.27, the “Relative Acid Output” value was 0.61 and the Rel. Vol. came out at 1.2. Moreover, the pIC50 in experiment [2] is 5.48.

`Cc1cc(Nc2ccc(F)cc2)nc(N2CCc3ccccc3C2C)n1.Cl` (centres unmarked) [Example 58, 6-methyl-4-(4-fluorophenylamino)-2-(1-methyl-1,2,3,4-tetrahydroisoquinolin-2-yl)pyrimidine hydrochloride]: in experiment [1], the Rel. Conc. was determined as 0.16, the “Relative Acid Output” value amounted to 0.35 and the Rel. Vol. is 0.58. Moreover, in experiment [2], the pIC50 was < 4.60.

Consider `Cc1cc(Nc2ccc(F)cc2C)nc(N2CCc3ccsc3C2C)n1.Cl` (centres unmarked) [Example 59, 6-methyl-4-(2-methyl-4-fluorophenylamino)-2-(7-methyl-4,5,6,7-tetrahydrothieno[2,3-c]pyridin-6-yl)pyrimidine hydrochloride], for which, in experiment [1], the Rel. Conc. was 0.25, the “Relative Acid Output” value is 0.56 and the Rel. Vol. was 0.51. Moreover, the pIC50 in experiment [2] is ~4.90.

Consider `Cc1cc(Nc2ccc(F)cc2)nc(N2CCc3ccsc3C2C)n1.Cl` (centres unmarked) [Example 60, 6-methyl-4-(4-fluorophenylamino)-2-(7-methyl-4,5,6,7-tetrahydrothieno[2,3-c]pyridin-6-yl)pyrimidine hydrochloride], for which, in experiment [1], the Rel. Conc. was determined as 0.28, the “Relative Acid Output” value worked out at 0.65 and the Rel. Vol. came out at 0.65. The pIC50 in experiment [2] was ~4.82.

Take `CCc1cc(Nc2ccc(F)cc2C)nc(N2CCc3ccccc3C2C)n1.Cl` (centres unmarked) [Example 61, 6-Ethyl-4-(2-methyl-4-fluorophenylamino)-2-(1-methyl-1,2,3,4-tetrahydroisoquinolin-2-yl)pyrimidine hydrochloride]: in experiment [1], the Rel. Conc. is 0.22, the “Relative Acid Output” value is recorded as 0.40 and the Rel. Vol. is 0.32. Moreover, the pIC50 in experiment [2] is ~4.90.

On to `CCc1cc(Nc2ccc(F)cc2C)nc(N2CCc3ccccc3C2)n1.Cl` [Example 62, 6-ethyl-4-(2-methyl-4-fluorophenylamino)-2-(1,2,3,4-tetrahydroisoquinolin-2-yl)pyrimidine hydrochloride], for which, in experiment [1], the Rel. Conc. was 0.31, the “Relative Acid Output” value is on record as 0.67 and the Rel. Vol. worked out at 0.61. Moreover, the negative logarithm of the IC50 (pIC50) in experiment [2] is < 4.70.

With `CCc1cc(Nc2ccc(F)cc2)nc(N2CCc3ccccc3C2)n1.Cl` [Example 63, 6-ethyl-4-(4-fluorophenylamino)-2-(1,2,3,4-tetrahydroisoquinolin-2-yl)pyrimidine hydrochloride], in experiment [1], the Rel. Conc. came out at 0.33, the “Relative Acid Output” value is reported as 0.72 and the Rel. Vol. came to 0.69. For the same compound, the negative logarithm of the IC50 (pIC50) in experiment [2] is ~4.92.

For the compound `CCc1cc(N(C)c2ccccc2)nc(N2CCc3ccccc3C2)n1.Cl` [Example 64, 6-ethyl-4-(N-methylphenylamino)-2-(1,2,3,4-tetrahydroisoquinolin-2-yl)pyrimidine hydrochloride], in experiment [1], the Rel. Conc. was determined as 0.26, the “Relative Acid Output” value was 0.40 and the Rel. Vol. turned out to be 0.34. Also, the pIC50 in experiment [2] is ~5.00.

`Cc1cc(F)ccc1Nc1nc(N2CCc3ccccc3C2C)nc(C)c1C.Cl` (centres unmarked) [Example 65, 5,6-dimethyl-4-(2-methyl-4-fluorophenylamino)-2-(1-methyl-1,2,3,4-tetrahydroisoquinolin-2-yl)pyrimidine hydrochloride]: in experiment [1], the Rel. Conc. is 0.35, the “Relative Acid Output” value came out at 0.71 and the Rel. Vol. stood at 1.43. In addition, the pIC50 in experiment [2] is 6.00.

With `Cc1cc(F)ccc1Nc1nc(N2CCc3ccccc3[C@H]2C)nc(C)c1C.Cl` [Example 66, (R)-5,6-dimethyl-4-(2-methyl-4-fluorophenylamino)-2-(1-methyl-1,2,3,4-tetrahydroisoquinolin-2-yl)pyrimidine hydrochloride], in experiment [1], the Rel. Conc. is 0.47, the “Relative Acid Output” value was 0.85 and the Rel. Vol. stood at 1.49. In addition, the pIC50 in experiment [2] is 6.05.

With `Cc1cc(F)ccc1Nc1nc(N2CCc3ccccc3[C@@H]2C)nc(C)c1C.Cl` [Example 67, (S)-5,6-dimethyl-4-(2-methyl-4-fluorophenylamino)-2-(1-methyl-1,2,3,4-tetrahydroisoquinolin-2-yl)pyrimidine hydrochloride], in experiment [1], the Rel. Conc. is 0.31, the “Relative Acid Output” value stood at 0.62 and the Rel. Vol. is 1.36. In addition, the pIC50 in experiment [2] is 5.89.

For `Cc1nc(N2CCc3ccccc3C2C)nc(Nc2ccc(F)cc2)c1C.Cl` (centres unmarked) [Example 68, 5,6-dimethyl-4-(4-fluorophenylamino)-2-(1-methyl-1,2,3,4-tetrahydroisoquinolin-2-yl)pyrimidine hydrochloride], in experiment [1], the Rel. Conc. was found to be 0.23, the “Relative Acid Output” value was determined as 0.67 and the Rel. Vol. amounted to 1.52. Moreover, the pIC50 in experiment [2] is 5.51.

`Cc1nc(N2CCc3ccccc3[C@H]2C)nc(Nc2ccc(F)cc2)c1C.Cl` [Example 69, (R)-5,6-dimethyl-4-(4-fluorophenylamino)-2-(1-methyl-1,2,3,4-tetrahydroisoquinolin-2-yl)pyrimidine hydrochloride]: in experiment [1], the Rel. Conc. turned out to be 0.39, the “Relative Acid Output” value came to 0.76 and the Rel. Vol. was determined as 1.61. Besides, the pIC50 in experiment [2] is 5.54.

For `Cc1nc(N2CCc3ccccc3[C@@H]2C)nc(Nc2ccc(F)cc2)c1C.Cl` [Example 70, (S)-5,6-dimethyl-4-(4-fluorophenylamino)-2-(1-methyl-1,2,3,4-tetrahydroisoquinolin-2-yl)pyrimidine hydrochloride], in experiment [1], the Rel. Conc. was 0.22, the “Relative Acid Output” value was found to be 0.61 and the Rel. Vol. is 1.3. In addition, the pIC50 in experiment [2] is 5.46.

As for `Cc1cc(F)ccc1Nc1nc(N2CCc3ccccc3C2)nc(C)c1C.Cl` [Example 74, 5,6-dimethyl-4-(2-methyl-4-fluorophenylamino)-2-(1,2,3,4-tetrahydroisoquinolin-2-yl)pyrimidine hydrochloride], in experiment [1], the Rel. Conc. stood at 1.49, the “Relative Acid Output” value is 1.16 and the Rel. Vol. is 1.22. Besides, in experiment [2], the negative-log IC50 (pIC50) is 6.30.

For `Cc1cc(F)ccc1Nc1nc(N2CCc3ccsc3C2C)nc(C)c1C.Cl` (centres unmarked) [Example 77, 5,6-dimethyl-4-(2-methyl-4-fluorophenylamino)-2-(7-methyl-4,5,6,7-tetrahydrothieno[2,3-c]pyridin-6-yl)pyrimidine hydrochloride], in experiment [1], the Rel. Conc. amounted to 1.63, the “Relative Acid Output” value is given as 1.30 and the Rel. Vol. worked out at 1.48. The negative logarithm of the IC50 (pIC50) in experiment [2] was 5.44.

Consider `Cc1nc(N2CCc3ccsc3C2C)nc(Nc2ccc(F)cc2)c1C.Cl` (centres unmarked) [Example 78, 5,6-dimethyl-2-(7-methyl-4,5,6,7-tetrahydrothieno[2,3-c]pyridin-6-yl)-4-(4-fluorophenylamino)pyrimidine hydrochloride], for which, in experiment [1], the Rel. Conc. amounted to 1.75, the “Relative Acid Output” value is 1.09 and the Rel. Vol. was found to be 1.06. Besides, in experiment [2], the pIC50 was 5.07.

In the case of `Cc1cc(F)ccc1Nc1nc(N2CCc3ccccc3C2C)nc2c1CCC2` (centres unmarked) [Example 81, hydrochloride], in experiment [1], the Rel. Conc. is 0.47, the “Relative Acid Output” value is 0.68 and the Rel. Vol. stood at 0.56. The pIC50 in experiment [2] was 6.40.

Broadly, the pIC50 is the negative decadic logarithm of the IC50, by convention in mol/L.
